Experimental data: patent US10919899B2, “Imidazopyrazine compounds, preparation methods and uses thereof” (DONGGUAN ZHENXING-BEITE MEDICINE TECHNOLOGY CO., LTD., priority 2017, dated 2021)
“Also recorded” adds a separate entry of the source.

Experiments:
[1] = system: TMD-8 lymphoma cell strain transplanted tumor; test: Tumor model pharmacodynamic assay, TMD-8 transplanted tumor; assay type: in vivo, mice; conditions: for T/C (relative tumor volume increased ratio): 18 days
Description: The dose-effect relationship of inhibition of the compound to tumor growth in a diffuse large B cell lymphoma cell strain TMD-8 transplanted tumor model was studied in the present assay. When volume of TMD-8 tumor reached around 200 mm^3, the animals were divided into four oral administration groups, i.e. vehicle control group and 50 mg/kg, 100 mg/kg, and 200 mg/kg of compound 1 oral administration groups (n=8/
roup). […]
The tumor volume was measured, and the relative tumor volume (RTV) and the relative tumor volume increased ratio were calculated. RTV=Vt/V0, wherein Vt is the average value of the tumor volume at t^th day after the grouping and administrating, and V0 is the average value of the tumor volume at the grouping day. T/C=treatment group RTV/control group RTVx100%.

Itk (h) = Itk (h) (Homo sapiens (Human), UniProt Q08881); test: ITK activity inhibition assay (radioactive protein kinase method, Eurofins); assay type: biochemical
Description: (§1) The inhibitory activities of the compound to Tec, Txk, and ITK of human were performed by Eurofins Pharma Discovery Services UK Limited (UK) of the United Kingdom. In the case of Km ATP, the radioactive protein kinase method was adopted by the test. The kinase was diluted with buffer solution (20 mM MOPS, 1 mM EDTA, 0.01% Brij-35, 5% Glycerol, 0.1% […], 1 mg/mL BSA) before the reaction. The compound was dissolved in 100% DMSO and was of 50-fold final reaction concentration.
ITK reaction solution included 8 mM MOPS pH 7.0, 0.2 mM EDTA, 0.33 mg/mL myelin basic protein, 10 mM magnesium acetate, and [γ-^33P]-ATP (about 500 cpm/pmol), 200 μM ATP-Mg was added, after mixing, the reaction was started, the incubation was performed for 40 minutes at room temperature, and 3% phosphoric acid solution was added to terminate the reaction. 10 μl (reaction solution) was placed on P30 filtration membrane, washed with 75 mM phosphoric acid for 5 minutes, and dried with methanol for one time, and then scintillation counting was performed.

BTK = BTK (Homo sapiens (Human), UniProt Q06187); test: BTK kinase activity inhibition assay (Caliper mobility shift); assay type: biochemical; conditions: ATP 90 μM, read-out: BTK IC50 level
Description: Activity of BTK protein kinase was tested by Caliper mobility shift assay (referring to J Biomol Screen 14:31, 2009). The compound of the present disclosure was dissolved in DMSO and then diluted 10-fold with kinase buffer solution (50 mM HEPES-pH 7.5, 0.0015% Brij-35, 10 mM MgCl2, 2 mM DTT). […] 10 μl of a substrate solution of a substrate FAM-labeled SRCtide peptide (Biochem, Cat. No. 112394) and ATP (90 μM) with 2.5-fold final reaction concentration was further added to start the reaction. Then incubation was performed for 10 minutes at room temperature. After incubation for 1 hour 28° C., 25 μl of stopping solution (100 mM HEPES, pH 7.5, 0.015% Brij-35, 0.2% Coating Reagent #3, 50 mM EDTA) was added to terminate the reaction. The conversion ratio data was read on Caliper EZ Reader II (Caliper Life Sciences). The inhibition ratio was calculated and the calculation formula is: inhibition ratio %=(max-conversion)/(max-min)×100 %.

HCC827 NSCLC cell = test: Tumor cell proliferation inhibition assay (CellTiter-Glo), HCC827; assay type: cell-based; conditions: Homo sapiens, 72 hours, 10% fetal calf serum, read-out: HCC827 anti-proliferative IC50 level
Description: (§2) Cell viability was evaluated by measuring a content of triphosadenine (ATP) by using CellTiter-Glo luminescent cell viability assay kit method (Promega, # G7572, Madison, Wis.). Diffuse large B cell lymphoma cell strain TMD-8 and HCC827 NSCL cell strains are purchased from Shanghai Fudan IBS Cell Center and American Type Culture Collection (ATCC). After the cells were digested from a cell culture dish by pancreatin and re-suspended by DPBS culture medium, a Scepter automatic cell counter (Millipore, # PHCC00000) was used for counting to measure a cell density. The cells were diluted to be a solution containing 44,000 cells per milliliter. The cell solution with the adjusted density was added into a cell assay plate with 90 μl per well. The well plate was placed to an incubator with 5% CO2 at 37° C. to be incubated for 24 hours and then added with the compound to be tested with different concentrations. The cells and the compound were together incubated for 72 hours in the presence of 10% fetal calf serum. The content of ATP was measured by using CellTiter-Glo® Luminescent Cell Viability Assay kit (referring to manufacturer's instruction) to evaluate the inhibition to the cell growth. Briefly speaking, each well was added with 30 μl of CellTiter-Glo® reagent, the plate was shaken for 10 minutes to induce the cells to be lysed, and fluorescence signal was detected and recorded by fluorescencelchemiluminescence analyzer Fluoroskan Ascent FL (Thermo Scientific Fluoroskan Ascent FL). The maximal signal value was obtained from cells processed by dimethyl sulfoxide (DMSO) for 72 or 120 hours. The minimal signal value obtained from separate culture medium (wherein the number of cells was zero) was defined as 0. Inhibition ratio %=(maximal signal value-compound signal value)/(maximal signal value−minimal signal value)×100%. The data was processed by using GraphPad Prism V5.0 (GraphPad Software San Diego, Calif.) software. IC50 value was fitted and calculated via S-shaped dose-response curve.

Txk (h) = Txk (h) (Homo sapiens (Human), UniProt P42681); test: Txk activity inhibition assay (radioactive protein kinase method, Eurofins); assay type: biochemical
Description: as §1
TxK reaction solution contained 8 mM MOPS pH 7.0, 0.2 mM EDTA, 250 μM […], 10 mM magnesium acetate, and [γ-^33P]-ATP (about 500 cpm/pmol), 200 μM ATP-Mg was added, after mixing, the reaction was started, the incubation was performed for 40 minutes at room temperature, and 3% phosphoric acid solution was added to terminate the reaction, 10 μl (reaction solution) was placed on P30 filtration membrane, washed with 75 mM phosphoric acid for 5 minutes, and dried with methanol for one time, and then scintillation counting was performed.

[2] = system: Diffuse large B cell lymphoma cell strain TMD-8; test: Tumor cell proliferation inhibition assay (CellTiter-Glo), TMD-8; assay type: cell-based; conditions: Homo sapiens, TMD8; 72 hours, 10% fetal calf serum; read-out: TMD-8 anti-proliferative IC50 level
Description: as §2

Tec (h) activated = Tec (h) activated (Homo sapiens (Human), UniProt P42680); test: Tec activity inhibition assay (radioactive protein kinase method, Eurofins); assay type: biochemical
Description: as §1
10 μl (reaction solution) was placed on P30 filtration membrane, washed with 75 mM phosphoric acid for 5 minutes, and dried with methanol for one time, and then scintillation counting was performed.

EGFR T790M/L858R = EGFR T790M/L858R (Homo sapiens, UniProt P00533, L858R/T790M); test: EGFR activity inhibition assay (Caliper mobility shift); assay type: biochemical
Description: The conversion ratio data was read on Caliper EZ Reader II (Caliper Life Sciences).

[3] = Pharmacokinetic (PK) assay in rats; assay type: in vivo, rat; conditions: 20 mg/kg oral
Description: A male SD rat with 250-300 g of weight was fasted overnight before the assay. The compound to be tested was dissolved in 30% sulfobutyl ether-β-cyclodextrin (SBE-β-CD) and intragastrically administrated to the rat by 20 mg/kg of dosages. Take blood at 15th minute, 30th minute, and 1st, 2nd, 3rd, 4th, 6th, 8th, and 24th hours after the administratation, and about 0.3 mL of blood was taken at each time point. The blood samples were placed into centrifuge tubes containing K2-EDTA (dipotassium ethylene diamine tetraacetate) and plasma was taken via centrifugal treatment (2,000 g, 10 minutes, 4° C.) and stored in a −80° C. of ultra low temperature refrigerator. 50 μL of plasma sample was mixed with 50 μL of internal standard (IS) and extracted with ethyl acetate. After vacuum dried, the residue was re-dissolved in acetonitrile The sample was filtered and injected into LC-MS/MS to be analyzed.

Chain of Tec (h) activated (P42680 whole entry): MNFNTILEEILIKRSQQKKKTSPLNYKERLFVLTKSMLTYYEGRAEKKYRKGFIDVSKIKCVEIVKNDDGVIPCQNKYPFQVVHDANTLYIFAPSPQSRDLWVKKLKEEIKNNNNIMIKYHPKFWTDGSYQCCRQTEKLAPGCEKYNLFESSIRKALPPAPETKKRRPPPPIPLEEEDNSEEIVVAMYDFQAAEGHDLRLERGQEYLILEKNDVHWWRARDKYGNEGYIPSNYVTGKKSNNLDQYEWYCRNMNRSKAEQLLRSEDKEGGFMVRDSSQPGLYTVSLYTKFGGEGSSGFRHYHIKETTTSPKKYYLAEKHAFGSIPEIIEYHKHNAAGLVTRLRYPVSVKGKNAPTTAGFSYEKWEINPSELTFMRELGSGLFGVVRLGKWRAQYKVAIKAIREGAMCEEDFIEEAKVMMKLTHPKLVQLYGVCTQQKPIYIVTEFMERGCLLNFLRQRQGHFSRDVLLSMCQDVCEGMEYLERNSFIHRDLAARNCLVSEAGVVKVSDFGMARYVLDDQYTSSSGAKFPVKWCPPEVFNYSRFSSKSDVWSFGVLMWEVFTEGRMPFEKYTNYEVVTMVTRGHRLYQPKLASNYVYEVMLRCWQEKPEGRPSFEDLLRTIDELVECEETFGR
Chain of Itk (h) (Q08881 whole entry): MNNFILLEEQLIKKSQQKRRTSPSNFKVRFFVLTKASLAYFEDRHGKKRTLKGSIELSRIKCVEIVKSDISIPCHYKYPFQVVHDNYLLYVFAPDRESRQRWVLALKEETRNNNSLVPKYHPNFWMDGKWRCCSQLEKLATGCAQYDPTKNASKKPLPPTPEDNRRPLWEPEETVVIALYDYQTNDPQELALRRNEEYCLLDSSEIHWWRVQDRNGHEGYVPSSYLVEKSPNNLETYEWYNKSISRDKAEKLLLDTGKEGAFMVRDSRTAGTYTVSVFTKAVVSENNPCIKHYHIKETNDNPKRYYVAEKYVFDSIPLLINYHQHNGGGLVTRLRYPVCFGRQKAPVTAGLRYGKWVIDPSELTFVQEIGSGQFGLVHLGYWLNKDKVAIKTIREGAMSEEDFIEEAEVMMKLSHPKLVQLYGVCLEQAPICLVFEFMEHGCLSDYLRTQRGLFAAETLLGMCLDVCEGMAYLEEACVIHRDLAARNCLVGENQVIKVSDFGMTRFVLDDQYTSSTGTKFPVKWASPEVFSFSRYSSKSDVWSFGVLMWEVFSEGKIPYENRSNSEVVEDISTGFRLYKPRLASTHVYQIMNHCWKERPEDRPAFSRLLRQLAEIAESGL
Chain of EGFR T790M/L858R (P00533 25-1210 T790M/L858R limits assumed): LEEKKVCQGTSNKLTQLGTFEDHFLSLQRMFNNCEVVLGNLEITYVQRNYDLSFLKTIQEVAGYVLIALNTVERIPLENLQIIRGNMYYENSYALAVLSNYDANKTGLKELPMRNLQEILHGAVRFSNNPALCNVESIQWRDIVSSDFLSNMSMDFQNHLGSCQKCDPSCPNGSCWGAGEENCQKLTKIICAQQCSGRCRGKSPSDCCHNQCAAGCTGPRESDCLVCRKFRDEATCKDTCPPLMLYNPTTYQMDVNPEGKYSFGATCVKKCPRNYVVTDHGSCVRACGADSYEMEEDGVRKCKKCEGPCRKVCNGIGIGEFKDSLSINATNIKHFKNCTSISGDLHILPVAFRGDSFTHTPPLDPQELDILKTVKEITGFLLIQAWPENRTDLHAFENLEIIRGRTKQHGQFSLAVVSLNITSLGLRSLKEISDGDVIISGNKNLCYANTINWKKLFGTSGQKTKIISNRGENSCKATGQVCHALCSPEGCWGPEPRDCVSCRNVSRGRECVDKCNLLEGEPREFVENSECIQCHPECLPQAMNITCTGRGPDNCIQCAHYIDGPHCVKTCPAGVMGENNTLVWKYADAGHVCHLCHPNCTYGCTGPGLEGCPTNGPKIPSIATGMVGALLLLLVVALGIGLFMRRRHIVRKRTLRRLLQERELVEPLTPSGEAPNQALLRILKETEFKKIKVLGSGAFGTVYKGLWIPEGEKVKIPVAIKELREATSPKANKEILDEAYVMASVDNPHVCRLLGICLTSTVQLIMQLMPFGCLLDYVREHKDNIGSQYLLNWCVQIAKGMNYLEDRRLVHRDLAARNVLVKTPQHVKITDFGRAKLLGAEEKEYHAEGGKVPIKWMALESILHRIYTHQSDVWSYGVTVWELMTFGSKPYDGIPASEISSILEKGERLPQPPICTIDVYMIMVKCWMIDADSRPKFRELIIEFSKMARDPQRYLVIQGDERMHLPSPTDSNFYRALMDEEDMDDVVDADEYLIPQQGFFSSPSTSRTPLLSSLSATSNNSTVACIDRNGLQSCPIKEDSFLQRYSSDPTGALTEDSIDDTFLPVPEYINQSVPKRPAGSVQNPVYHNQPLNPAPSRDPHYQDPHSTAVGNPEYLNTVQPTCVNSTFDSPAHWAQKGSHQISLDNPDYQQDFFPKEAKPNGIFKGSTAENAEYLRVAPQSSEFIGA
Chain of Txk (h) (P42681 whole entry): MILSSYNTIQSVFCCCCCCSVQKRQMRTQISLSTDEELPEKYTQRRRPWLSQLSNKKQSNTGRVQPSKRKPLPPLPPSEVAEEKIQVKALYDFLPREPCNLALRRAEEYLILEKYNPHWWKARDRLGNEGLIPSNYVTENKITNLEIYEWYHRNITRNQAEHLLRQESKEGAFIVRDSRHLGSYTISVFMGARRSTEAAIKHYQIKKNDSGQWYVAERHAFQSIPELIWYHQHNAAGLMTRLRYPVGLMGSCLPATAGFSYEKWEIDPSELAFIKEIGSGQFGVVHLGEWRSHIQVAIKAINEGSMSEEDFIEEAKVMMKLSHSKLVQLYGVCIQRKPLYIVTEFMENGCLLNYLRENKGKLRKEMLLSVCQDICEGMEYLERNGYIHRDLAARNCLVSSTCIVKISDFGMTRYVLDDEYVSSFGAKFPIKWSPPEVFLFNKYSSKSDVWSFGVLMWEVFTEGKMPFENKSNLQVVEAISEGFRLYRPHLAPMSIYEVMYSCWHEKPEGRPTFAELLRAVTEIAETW
Chain of BTK (Q06187 whole entry): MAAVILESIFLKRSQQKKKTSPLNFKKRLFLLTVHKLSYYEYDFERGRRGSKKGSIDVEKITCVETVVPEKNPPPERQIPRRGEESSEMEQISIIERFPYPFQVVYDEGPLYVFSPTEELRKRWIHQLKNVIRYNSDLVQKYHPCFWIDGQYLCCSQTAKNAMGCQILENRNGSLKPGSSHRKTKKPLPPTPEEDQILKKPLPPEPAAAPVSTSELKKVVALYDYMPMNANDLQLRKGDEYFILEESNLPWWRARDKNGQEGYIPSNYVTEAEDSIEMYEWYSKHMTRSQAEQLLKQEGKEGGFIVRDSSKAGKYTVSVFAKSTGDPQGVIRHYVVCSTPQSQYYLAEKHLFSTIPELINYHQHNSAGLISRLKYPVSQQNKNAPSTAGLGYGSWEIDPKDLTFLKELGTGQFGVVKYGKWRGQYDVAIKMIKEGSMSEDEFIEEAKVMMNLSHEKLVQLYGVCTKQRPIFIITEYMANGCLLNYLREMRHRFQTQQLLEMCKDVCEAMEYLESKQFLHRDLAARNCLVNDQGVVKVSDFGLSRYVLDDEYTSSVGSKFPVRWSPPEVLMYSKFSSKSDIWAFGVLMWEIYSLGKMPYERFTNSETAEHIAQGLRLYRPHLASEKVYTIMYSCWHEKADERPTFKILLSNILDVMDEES

CC#CC(=O)N1CCC[C@H]1c1nc(-c2ccc(OCc3ccccc3)cc2)c2c(N)nccn12 [Compound 1, (S)-1-(2-(8-amino-1-(4-(benzyloxy)phenyl)imidazo[1,5-a]pyrazin-3-yl)pyrrolidin-1-yl)but-2-yn-1-one]
T/C (relative tumor volume increased ratio) ([1]; 50 mg/kg oral once a day): 71% | T/C (relative tumor volume increased ratio) ([1]; 100 mg/kg oral once a day): 7% | T/C (relative tumor volume increased ratio) ([1]; 200 mg/kg oral once a day): −91% | weight of the animal compared to before the administration ([1]; each administration group, 50, 100, 200 mg/kg oral): increased | inhibition of growth of TMD-8 transplanted tumor (in words) ([1]; oral administration, 50-200 mg/kg): inhibit the growth of TMD-8 transplanted tumor dose-dependently; also recorded: dosage-dependently inhibit the growth | inhibitory activity to ITK (in words) (Itk (h)): very low | IC50 (Itk (h); Km ATP, radiometric): > 10 µM | IC50 (BTK): ≤ 0.1 µM | IC50 (HCC827 NSCLC cell): > 10 µM | inhibitory activity to Txk (in words) (Txk (h)): very low | IC50 (Txk (h); Km ATP, radiometric): 4.54 µM | IC50 [2]: ≤ 0.1 µM | inhibitory activity to Tec (in words) (Tec (h) activated): very low | IC50 (Tec (h) activated; Km ATP, radiometric): 0.218 µM | inhibitory effect on EGFR (in words) (EGFR T790M/L858R): does not inhibit | IC50 (EGFR T790M/L858R; Km ATP): > 10 µM | t1/2 ([3]; male SD rat): 4.2 h | AUC(0-inf) ([3]; plasma, male SD rat): 3490 ng·h/mL | Cmax ([3]; plasma, male SD rat): 1540 ng/mL | Tmax ([3]; plasma, male SD rat): 0.5 h | half-life ([3]; plasma, male SD rat): 4.2 h | AUC(0-t) ([3]; plasma, male SD rat, read-out: AUC0-24): 3480 ng·h/mL | AUC relative to ACP-196 ([3]; rat): more than double | Cmax relative to ACP-196 ([3]; rat): more than double | half-life compared to ACP-196 (in words) ([3]; rat): shorter half-life | plasma exposure amount compared to ACP-196 (in words) ([3]; rat): higher plasma exposure amount
